From publication PMC2630805, “Anticancer Alkaloid Lamellarins Inhibit Protein Kinases” (Marine Drugs, 2008)

Assays:
BMX kinase (h) (Etk) = BMX kinase (h) (Etk) (Homo sapiens, UniProt P51813); assay: CEREP Kinase Selectivity Panel; assay type: biochemical; settings: 10 μM lamellarin N
MEK1/MAP2K1 (h) = MEK1/MAP2K1 (h) (Homo sapiens, UniProt Q02750); assay: CEREP Kinase Selectivity Panel; assay type: biochemical; settings: 10 μM lamellarin N
[1] = test system: PARP, p53, p21^CIP1, Mcl-1 in SH-SY5Y cells; assay type: cell-based, human
Protocol: SH-SY5Y cells treated at time 0 with 1 μM lamellarin N. Cells were harvested at different time-points and protein extracted for SDS-PAGE followed by Western blot analysis using antibodies directed against PARP, p53, p21^CIP1, or Mcl-1, as described in the materials and methods section. β-actin was used as loading control. “Ctrl” denoted untreated sample after 10 hours.
At given time points and lamellarin doses, SH-SY5Y cells were harvested in phosphate buffered saline (PBS) with commercially available protease inhibitors (Roche, 11836145001). Cells were homogenized by sonication in homogenization buffer supplemented with 0.1% NP-40 and protease inhibitors. The homogenization buffer consist of: 25mM MOPS, 15mM EGTA, 15mM MgCl2, 1mM sodium orthovanadate, 1mM sodium fluoride, 60mM β-glycerophosphate, 2mM DTT, 15mM p-nitrophenylphosphate, and 1mM phenyl phosphate-di-sodium salt (all reagents supplied by Sigma). Sonication retrieved proteins. Cellular proteins were subjected to electrophoresis in SDS 10% polyacrylamide gels and transferred to a PVDF membrane (Invitrogen). Membranes were incubated with primary antibodies directed against p53 (Santa Cruz Biotech, sc-263) (1:1000), p21^CIP1 (Calbiochem, OP64) (1:1000) or poly (ADP-ribose) polymerase (PARP) (Santa Cruz Biotech, sc-7150) (1:500). Appropriate secondary antibodies conjugated to horseradish peroxidase (Biorad) were added to visualize the proteins using the ECL detection system.

PIM 1 = PIM 1 (Homo sapiens, UniProt P11309); assay: PIM1 kinase assay (histone H1); assay type: biochemical
ERK1 (h) = ERK1 (h) (Homo sapiens, UniProt P27361); assay: CEREP Kinase Selectivity Panel; assay type: biochemical; settings: 10 μM lamellarin N
Ret kinase (h) = Ret kinase (h) (Homo sapiens, UniProt P07949); assay: CEREP Kinase Selectivity Panel; assay type: biochemical; settings: 10 μM lamellarin N
PKCγ (h) = PKCγ (h) (Homo sapiens, UniProt P05129); assay: CEREP Kinase Selectivity Panel; assay type: biochemical; settings: 10 μM lamellarin N
CHK2 (h) = CHK2 (h) (Homo sapiens, UniProt O96017); assay: CEREP Kinase Selectivity Panel; assay type: biochemical; settings: 10 μM lamellarin N
CDK1/cyclin B = CDK1/cyclin B kinase assay (histone H1, P81 phosphocellulose); assay type: biochemical, starfish (Marthasterias glacialis); settings: 15 μM ATP; cell '− (x)' = no inhibitory activity detected, x = highest concentration tested
Protocol: ATP (3,000 Ci/mmol; 1 mCi/ml) in a final volume of 30 μl. […] The wet filters were counted in the presence of 1 ml ACS (Amersham) scintillation fluid.

SH-SY5Y cells = assay: Kinetics and dose-response of cell death (MTS reduction, LDH release, DEVDase caspase activity); assay type: cell-based, human; settings: dose-response, doses as low as
Protocol: SH-SY5Y cells were next incubated with a range of lamellarin N concentrations or at 1 μM over 48 hrs. Cell survival was monitored by the MTS reduction assay, cell death was assessed by the LDH release assay and caspase activation was measured using DEVD as a substrate (Figure 1).
Figure 1. Dose- and time- dependent induction of cell death by lamellarin N. (A) Neuroblastoma SH-SY5Y cells were treated with lamellarin N at various concentrations. Cell death was measured by LDH release, cell survival was assessed by the MTS reduction assay, and caspase 3 activity was monitored as DEVDase activity. MTS and LDH assay were carried out 48 hours after treatment with lamellarin N. The caspase assay was carried out 24 hours after treatment. (B) Kinetics of cell survival, cell death and caspases activation following exposure of SH-SY5Y cells to 1 μM lamellarin N. Average of 3 independent experiments performed in triplicate. The standard deviation (±SD) is indicated by error bars.
SH-SY5Y human neuroblastoma cells were grown in DMEM supplemented with 2mM L-glutamine (Invitrogen, Cergy Pontoise, France), plus antibiotics (penicillin-streptomycin) and a 10% volume of fetal calf serum (FCS) (Invitrogen). Cell viability was determined by means of the MTS (3- (4,5-dimethylthiazol-2-yl)-5- (3-carboxymethoxyphenyl)-2- (4-sulfophenyl)-2H -tetrazolium) reduction method as previously described. […]

MAPKAPK2 (h) = MAPKAPK2 (h) (Homo sapiens, UniProt P49137); assay: CEREP Kinase Selectivity Panel; assay type: biochemical; settings: 10 μM lamellarin N
IGF1R kinase (h) = IGF1R kinase (h) (Homo sapiens, UniProt P08069); assay: CEREP Kinase Selectivity Panel; assay type: biochemical; settings: 10 μM lamellarin N
p38γ kinase (h) = p38γ kinase (h) (Homo sapiens, UniProt P53778); assay: CEREP Kinase Selectivity Panel; assay type: biochemical; settings: 10 μM lamellarin N
JNK 2 (h) = JNK 2 (h) (Homo sapiens, UniProt P45984); assay: CEREP Kinase Selectivity Panel; assay type: biochemical; settings: 10 μM lamellarin N
GSK-3α/ß = assay: GSK-3α/β kinase assay (GS-1 substrate); assay type: biochemical, porcine; settings: 15 μM ATP; cell '− (x)' = no inhibitory activity detected, x = highest concentration tested
Excerpt: GSK-3 α/β was purified from porcine brain by affinity chromatography on immobilized axin [39].

PKA (h) = PKA (h) (Homo sapiens, UniProt P17612); assay: CEREP Kinase Selectivity Panel; assay type: biochemical; settings: 10 μM lamellarin N
KDR kinase (h) (VEGFR2) = KDR kinase (h) (VEGFR2) (Homo sapiens, UniProt P35968); assay: CEREP Kinase Selectivity Panel; assay type: biochemical; settings: 10 μM lamellarin N
Abl kinase (h) = Abl kinase (h) (Homo sapiens, UniProt P00519); assay: CEREP Kinase Selectivity Panel; assay type: biochemical; settings: 10 μM lamellarin N
Brk (h) = Brk (h) (Homo sapiens, UniProt Q13882); assay: CEREP Kinase Selectivity Panel; assay type: biochemical; settings: 10 μM lamellarin N
ERK2 (h) (P42mapk) = ERK2 (h) (P42mapk) (Homo sapiens, UniProt P28482); assay: CEREP Kinase Selectivity Panel; assay type: biochemical; settings: 10 μM lamellarin N
FLT-3 kinase (h) = FLT-3 kinase (h) (Homo sapiens, UniProt P36888); assay: CEREP Kinase Selectivity Panel; assay type: biochemical; settings: 10 μM lamellarin N
EphB4 kinase (h) = EphB4 kinase (h) (Homo sapiens, UniProt P54760); assay: CEREP Kinase Selectivity Panel; assay type: biochemical; settings: 10 μM lamellarin N
Akt1/PKB α (h) = Akt1/PKB α (h) (Homo sapiens, UniProt P31749); assay: CEREP Kinase Selectivity Panel; assay type: biochemical; settings: 10 μM lamellarin N
CHK1 (h) = CHK1 (h) (Homo sapiens, UniProt O14757); assay: CEREP Kinase Selectivity Panel; assay type: biochemical; settings: 10 μM lamellarin N
RSK2 (h) = RSK2 (h) (Homo sapiens, UniProt P51812); assay: CEREP Kinase Selectivity Panel; assay type: biochemical; settings: 10 μM lamellarin N
Syk (h) = Syk (h) (Homo sapiens, UniProt P43405); assay: CEREP Kinase Selectivity Panel; assay type: biochemical; settings: 10 μM lamellarin N
CaMK2α (h) = CaMK2α (h) (Homo sapiens, UniProt Q9UQM7); assay: CEREP Kinase Selectivity Panel; assay type: biochemical; settings: 10 μM lamellarin N
FGFR4 kinase (h) = FGFR4 kinase (h) (Homo sapiens, UniProt P22455); assay: CEREP Kinase Selectivity Panel; assay type: biochemical; settings: 10 μM lamellarin N
CDK2 (h) (cycE) = CDK2 (h) (cycE) (Homo sapiens, UniProt P24941); assay: CEREP Kinase Selectivity Panel; assay type: biochemical; settings: 10 μM lamellarin N
FGFR2 kinase (h) = FGFR2 kinase (h) (Homo sapiens, UniProt P21802); assay: CEREP Kinase Selectivity Panel; assay type: biochemical; settings: 10 μM lamellarin N

Chain of KDR kinase (h) (VEGFR2) (P35968 20-1356): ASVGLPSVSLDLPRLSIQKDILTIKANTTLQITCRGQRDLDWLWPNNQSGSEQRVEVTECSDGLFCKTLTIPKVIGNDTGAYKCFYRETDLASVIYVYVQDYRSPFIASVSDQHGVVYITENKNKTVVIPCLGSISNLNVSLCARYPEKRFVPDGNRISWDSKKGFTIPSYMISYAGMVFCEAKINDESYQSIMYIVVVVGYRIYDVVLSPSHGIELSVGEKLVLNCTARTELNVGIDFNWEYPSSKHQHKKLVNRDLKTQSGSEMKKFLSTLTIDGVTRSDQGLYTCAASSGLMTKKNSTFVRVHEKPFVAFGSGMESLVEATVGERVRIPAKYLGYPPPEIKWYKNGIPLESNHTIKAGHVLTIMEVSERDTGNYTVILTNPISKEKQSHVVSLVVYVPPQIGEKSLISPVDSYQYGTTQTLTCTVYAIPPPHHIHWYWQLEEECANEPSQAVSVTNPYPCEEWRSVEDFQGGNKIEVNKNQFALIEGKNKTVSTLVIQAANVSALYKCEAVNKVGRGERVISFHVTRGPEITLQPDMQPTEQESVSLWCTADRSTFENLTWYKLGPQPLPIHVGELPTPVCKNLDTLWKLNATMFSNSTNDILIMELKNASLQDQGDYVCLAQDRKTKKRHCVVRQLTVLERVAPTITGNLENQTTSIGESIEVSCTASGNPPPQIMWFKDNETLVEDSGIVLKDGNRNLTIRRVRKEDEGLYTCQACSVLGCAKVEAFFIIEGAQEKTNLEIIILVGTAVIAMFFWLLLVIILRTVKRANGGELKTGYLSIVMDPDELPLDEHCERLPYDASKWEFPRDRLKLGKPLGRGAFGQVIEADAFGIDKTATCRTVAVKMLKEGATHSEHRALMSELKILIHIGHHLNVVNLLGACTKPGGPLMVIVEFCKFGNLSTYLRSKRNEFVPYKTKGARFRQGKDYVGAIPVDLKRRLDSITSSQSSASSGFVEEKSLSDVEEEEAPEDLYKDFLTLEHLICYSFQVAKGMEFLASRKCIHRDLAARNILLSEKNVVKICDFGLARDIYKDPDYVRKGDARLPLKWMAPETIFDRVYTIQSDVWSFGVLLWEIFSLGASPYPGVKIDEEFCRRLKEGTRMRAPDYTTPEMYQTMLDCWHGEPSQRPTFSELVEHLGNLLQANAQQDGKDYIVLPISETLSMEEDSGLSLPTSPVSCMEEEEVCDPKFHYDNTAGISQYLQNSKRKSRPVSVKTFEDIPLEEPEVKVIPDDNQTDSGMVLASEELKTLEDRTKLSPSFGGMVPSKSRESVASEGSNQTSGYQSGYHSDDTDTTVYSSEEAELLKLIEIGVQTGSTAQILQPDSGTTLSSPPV
Chain of MAPKAPK2 (h) (P49137 whole entry): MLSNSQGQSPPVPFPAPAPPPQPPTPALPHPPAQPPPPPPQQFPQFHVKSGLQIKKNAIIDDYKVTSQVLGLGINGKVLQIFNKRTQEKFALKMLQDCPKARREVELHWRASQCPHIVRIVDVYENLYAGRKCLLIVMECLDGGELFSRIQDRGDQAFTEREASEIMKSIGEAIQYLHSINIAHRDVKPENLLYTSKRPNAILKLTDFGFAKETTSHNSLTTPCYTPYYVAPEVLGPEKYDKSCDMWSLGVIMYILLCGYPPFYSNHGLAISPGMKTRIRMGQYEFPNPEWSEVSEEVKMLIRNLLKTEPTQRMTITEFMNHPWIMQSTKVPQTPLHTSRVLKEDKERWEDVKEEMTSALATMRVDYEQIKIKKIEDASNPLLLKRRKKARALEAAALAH
Chain of Ret kinase (h) (P07949 29-1114): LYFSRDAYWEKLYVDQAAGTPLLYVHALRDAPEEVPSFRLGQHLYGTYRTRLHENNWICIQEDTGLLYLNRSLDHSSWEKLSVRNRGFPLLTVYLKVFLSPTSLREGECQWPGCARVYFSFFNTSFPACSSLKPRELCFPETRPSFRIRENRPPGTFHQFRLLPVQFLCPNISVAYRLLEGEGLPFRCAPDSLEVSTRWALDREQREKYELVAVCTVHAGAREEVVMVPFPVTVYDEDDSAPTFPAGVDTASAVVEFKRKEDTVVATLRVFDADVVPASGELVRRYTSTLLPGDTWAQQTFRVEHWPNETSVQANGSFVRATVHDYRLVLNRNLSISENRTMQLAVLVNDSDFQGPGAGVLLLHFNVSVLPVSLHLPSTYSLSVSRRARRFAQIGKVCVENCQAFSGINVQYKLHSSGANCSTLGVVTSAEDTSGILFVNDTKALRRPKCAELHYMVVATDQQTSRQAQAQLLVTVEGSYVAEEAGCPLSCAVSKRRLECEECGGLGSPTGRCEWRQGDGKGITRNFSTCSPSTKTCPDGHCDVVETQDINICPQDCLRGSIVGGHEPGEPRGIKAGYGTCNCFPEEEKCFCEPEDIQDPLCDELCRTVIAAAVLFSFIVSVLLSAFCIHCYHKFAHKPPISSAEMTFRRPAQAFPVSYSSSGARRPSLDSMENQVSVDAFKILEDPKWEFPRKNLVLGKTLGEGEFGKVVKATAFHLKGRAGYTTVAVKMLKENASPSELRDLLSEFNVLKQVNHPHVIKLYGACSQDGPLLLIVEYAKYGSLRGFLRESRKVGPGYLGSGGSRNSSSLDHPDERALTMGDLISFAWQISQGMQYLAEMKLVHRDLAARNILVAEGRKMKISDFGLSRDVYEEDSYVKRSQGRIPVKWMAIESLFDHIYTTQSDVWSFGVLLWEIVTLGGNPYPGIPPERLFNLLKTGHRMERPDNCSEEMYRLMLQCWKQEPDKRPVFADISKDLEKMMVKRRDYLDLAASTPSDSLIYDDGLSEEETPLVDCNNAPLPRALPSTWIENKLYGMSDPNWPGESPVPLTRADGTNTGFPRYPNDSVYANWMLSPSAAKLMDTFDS
Chain of Akt1/PKB α (h) (P31749 whole entry): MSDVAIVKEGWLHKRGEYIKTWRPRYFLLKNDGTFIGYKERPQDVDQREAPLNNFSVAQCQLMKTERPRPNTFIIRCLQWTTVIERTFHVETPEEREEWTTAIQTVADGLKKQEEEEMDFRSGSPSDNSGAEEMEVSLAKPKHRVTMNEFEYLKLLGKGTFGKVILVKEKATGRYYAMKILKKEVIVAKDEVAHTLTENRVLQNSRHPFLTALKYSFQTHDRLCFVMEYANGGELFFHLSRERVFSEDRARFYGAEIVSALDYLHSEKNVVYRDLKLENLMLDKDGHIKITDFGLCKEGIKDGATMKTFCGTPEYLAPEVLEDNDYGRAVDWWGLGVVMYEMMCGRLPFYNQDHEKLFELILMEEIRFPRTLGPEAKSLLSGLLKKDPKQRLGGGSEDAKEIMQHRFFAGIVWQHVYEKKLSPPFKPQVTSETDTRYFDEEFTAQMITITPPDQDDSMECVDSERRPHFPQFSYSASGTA
Chain of p38γ kinase (h) (P53778 whole entry): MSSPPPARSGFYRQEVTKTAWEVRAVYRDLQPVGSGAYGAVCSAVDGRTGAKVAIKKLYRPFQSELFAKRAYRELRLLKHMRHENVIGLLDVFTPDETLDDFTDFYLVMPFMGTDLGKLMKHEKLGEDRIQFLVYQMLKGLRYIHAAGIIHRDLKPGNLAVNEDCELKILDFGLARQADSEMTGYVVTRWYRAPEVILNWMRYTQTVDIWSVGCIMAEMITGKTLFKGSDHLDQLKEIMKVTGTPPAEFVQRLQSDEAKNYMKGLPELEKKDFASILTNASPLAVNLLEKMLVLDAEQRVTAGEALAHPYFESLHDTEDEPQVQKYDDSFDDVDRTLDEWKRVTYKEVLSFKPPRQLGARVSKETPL
Chain of ERK2 (h) (P42mapk) (P28482 whole entry): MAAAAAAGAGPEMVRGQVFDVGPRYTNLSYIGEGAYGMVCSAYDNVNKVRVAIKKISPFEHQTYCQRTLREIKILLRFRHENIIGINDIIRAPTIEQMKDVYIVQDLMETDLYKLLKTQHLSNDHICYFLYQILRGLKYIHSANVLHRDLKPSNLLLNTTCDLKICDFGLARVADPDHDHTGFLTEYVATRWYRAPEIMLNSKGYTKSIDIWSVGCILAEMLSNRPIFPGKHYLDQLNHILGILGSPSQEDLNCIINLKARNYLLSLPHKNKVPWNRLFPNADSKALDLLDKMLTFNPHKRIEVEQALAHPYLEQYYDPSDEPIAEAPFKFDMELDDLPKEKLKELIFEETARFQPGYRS
Chain of PIM 1 (P11309 whole entry, species assumed): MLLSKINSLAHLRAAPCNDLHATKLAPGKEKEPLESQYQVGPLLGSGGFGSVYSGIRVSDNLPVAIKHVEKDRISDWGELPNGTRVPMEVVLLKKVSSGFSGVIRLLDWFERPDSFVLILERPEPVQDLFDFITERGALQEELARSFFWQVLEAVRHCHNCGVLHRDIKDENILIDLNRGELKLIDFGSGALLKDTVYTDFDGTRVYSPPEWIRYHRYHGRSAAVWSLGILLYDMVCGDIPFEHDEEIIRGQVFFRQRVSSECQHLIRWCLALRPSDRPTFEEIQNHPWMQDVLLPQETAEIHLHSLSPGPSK

Question: Which “Activity (% of control)” value (BMX kinase (h) (Etk)) does the source give for `COc1ccc(-c2c3c4cc(OC)c(O)cc4oc(=O)c3n3ccc4cc(O)c(OC)cc4c23)cc1O` [Compound 6, lamellarin N] here?
Answer: 60.8 % of control

Question: What about the “Activity (% of control)” value (MEK1/MAP2K1 (h)) of the same molecule?
Answer: 81.5 % of control

Question: And the “effect on survival factor Mcl-1 expression” value [1]?
Answer: not down-regulated

Question: And the “lowest concentration inducing PARP cleavage and p53 and p21 expression” value [1]?
Answer: 0.1 µM

Question: And the “time at which induction of PARP cleavage and p53 and p21 expression already takes place” value [1]?
Answer: ≤ 6 h

Question: What about the IC50 (PIM 1) of the same molecule?
Answer: 55 nM

Question: And the “Activity (% of control)” value (ERK1 (h))?
Answer: 94.1 % of control

Question: What about the “Activity (% of control)” value (Ret kinase (h)) of the same molecule?
Answer: 1.8 % of control

Question: And the “Activity (% of control)” value (PKCγ (h))?
Answer: 94.1 % of control

Question: What about the “Activity (% of control)” value (CHK2 (h)) of the same molecule?
Answer: 47.6 % of control

Question: And the IC50 (CDK1/cyclin B)?
Answer: 70 nM

Question: And the “lowest dose at which cells start dying” value (SH-SY5Y cells)?
Answer: 0.05 µM

Question: And the “Activity (% of control)” value (MAPKAPK2 (h))?
Answer: 96.6 % of control

Question: What about the “Activity (% of control)” value (IGF1R kinase (h)) of the same molecule?
Answer: 87.2 % of control

Question: And the “Activity (% of control)” value (p38γ kinase (h))?
Answer: 79.6 % of control

Question: And the “Activity (% of control)” value (JNK 2 (h))?
Answer: 15.7 % of control

Question: And the IC50 (GSK-3α/ß)?
Answer: 5 nM

Question: And the “Activity (% of control)” value (PKA (h))?
Answer: 80.0 % of control

Question: What about the “Activity (% of control)” value (KDR kinase (h) (VEGFR2)) of the same molecule?
Answer: 7.4 % of control

Question: And the “Activity (% of control)” value (Abl kinase (h))?
Answer: 61.4 % of control

Question: What about the “Activity (% of control)” value (Brk (h)) of the same molecule?
Answer: 72.8 % of control

Question: What about the “Activity (% of control)” value (ERK2 (h) (P42mapk)) of the same molecule?
Answer: 79.9 % of control

Question: And the “Activity (% of control)” value (FLT-3 kinase (h))?
Answer: 0.4 % of control

Question: What about the “Activity (% of control)” value (EphB4 kinase (h)) of the same molecule?
Answer: 89.7 % of control

Question: What about the “Activity (% of control)” value (Akt1/PKB α (h)) of the same molecule?
Answer: 104.6 % of control

Question: And the “Activity (% of control)” value (CHK1 (h))?
Answer: 93.3 % of control

Question: And the “Activity (% of control)” value (RSK2 (h))?
Answer: 44.5 % of control

Question: And the “Activity (% of control)” value (Syk (h))?
Answer: 97.1 % of control

Question: And the “Activity (% of control)” value (CaMK2α (h))?
Answer: 38.2 % of control

Question: What about the “Activity (% of control)” value (FGFR4 kinase (h)) of the same molecule?
Answer: 62.5 % of control

Question: And the “Activity (% of control)” value (CDK2 (h) (cycE))?
Answer: 57.1 % of control

Question: What about the “Activity (% of control)” value (FGFR2 kinase (h)) of the same molecule?
Answer: 19.8 % of control
